# Results taken from article PMC6934184, “Selective DNA-PKcs inhibition extends the therapeutic index of localized radiotherapy and chemotherapy” (The Journal of Clinical Investigation, 2019).
# Biological target: T1, AMPK A1/B1/G1 (Homo sapiens, UniProt Q13131)
# T1 construct: purchased Thermo Fisher Scientific (Life Technologies) SelectScreen
# Experiment: SelectScreen Z'LYTE
# Format: biochemical
# Method in brief: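 Compound tested in SelectScreen activity assays, Z'LYTE for CSF1R, CDK1/cyclin B and MAP2K6 and Adapta for CAMK1. ATP for CAMK1 was listed as 10, and Km app was used for CSF1R. Results are expressed in percent.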
# T1 sequence (Q13131 whole entry): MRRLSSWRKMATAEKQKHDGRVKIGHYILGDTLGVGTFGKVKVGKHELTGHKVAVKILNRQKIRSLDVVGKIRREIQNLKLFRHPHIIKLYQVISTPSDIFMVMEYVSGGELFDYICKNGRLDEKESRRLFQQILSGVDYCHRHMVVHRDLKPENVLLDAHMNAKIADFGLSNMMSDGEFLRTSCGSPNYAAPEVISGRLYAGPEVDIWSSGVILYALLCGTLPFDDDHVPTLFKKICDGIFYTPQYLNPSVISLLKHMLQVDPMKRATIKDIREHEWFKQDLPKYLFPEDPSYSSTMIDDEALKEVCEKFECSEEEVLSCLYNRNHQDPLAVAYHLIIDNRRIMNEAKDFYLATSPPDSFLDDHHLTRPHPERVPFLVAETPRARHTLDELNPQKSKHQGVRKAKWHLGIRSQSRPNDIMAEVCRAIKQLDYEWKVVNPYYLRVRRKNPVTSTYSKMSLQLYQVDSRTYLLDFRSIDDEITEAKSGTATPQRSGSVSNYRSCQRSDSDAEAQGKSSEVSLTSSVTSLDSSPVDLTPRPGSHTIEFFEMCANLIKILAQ
# T1 sequence (Q9Y478 whole entry partner): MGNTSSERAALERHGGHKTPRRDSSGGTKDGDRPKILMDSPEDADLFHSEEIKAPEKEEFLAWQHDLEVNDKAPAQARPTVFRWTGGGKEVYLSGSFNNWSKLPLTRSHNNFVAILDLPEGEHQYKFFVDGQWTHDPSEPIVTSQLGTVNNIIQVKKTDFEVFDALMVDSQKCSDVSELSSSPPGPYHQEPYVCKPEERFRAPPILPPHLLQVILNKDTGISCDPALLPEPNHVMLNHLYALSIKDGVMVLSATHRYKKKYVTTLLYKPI
# T1 sequence (P54619 whole entry partner): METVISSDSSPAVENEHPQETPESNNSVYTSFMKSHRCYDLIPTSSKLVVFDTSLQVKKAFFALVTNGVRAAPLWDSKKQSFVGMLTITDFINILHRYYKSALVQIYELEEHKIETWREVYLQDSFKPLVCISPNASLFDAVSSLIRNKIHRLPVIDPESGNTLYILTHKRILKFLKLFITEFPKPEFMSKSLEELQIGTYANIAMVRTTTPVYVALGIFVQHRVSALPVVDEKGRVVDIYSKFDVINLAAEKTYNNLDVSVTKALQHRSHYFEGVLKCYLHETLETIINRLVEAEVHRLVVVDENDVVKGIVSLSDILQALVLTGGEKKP
structure (smiles),measurement,value
CN(C(=O)CN1CCOCC1)c1ccc2sc3c(-c4cccc5c(=O)cc(N6CC7CCC(C6)O7)oc45)cccc3c2c1 [NU5455],inhibition at 1 µM,-1.2%
